#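 All cell lines were grown in 96-well plates and treated with compound for 48 hours. Abbreviation: GI50, concentration required for 50% inhibition of growth. The concentration for full growth arrest is given as TGI.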
# What was measured:
# Assay in all cases: growth of human tumour cells (NCI), 48 h
# [1] = test system: SK-OV-3 ovarian
# [2] = test system: OVCAR-5 ovarian
# [3] = test system: OVCAR-3 ovarian
# [4] = test system: HT29 colon
# [5] = test system: IGROV1 ovarian
# [6] = test system: SF-295 CNS
# [7] = test system: SNB-19 CNS
# [8] = test system: NCI-H23 lung
# [9] = test system: CCRF-CEM leukemia
# [10] = test system: MCF7 breast
SMILES,TGI [1] [µM],TGI [2] [µM],TGI [3] [µM],TGI [4] [µM],TGI [5] [µM],TGI [6] [µM],TGI [7] [µM],TGI [8] [µM],TGI [9] [µM],GI50 [1] [µM],GI50 [2] [µM],GI50 [3] [µM],GI50 [4] [µM],GI50 [5] [µM],GI50 [6] [µM],GI50 [7] [µM],GI50 [8] [µM],GI50 [9] [µM],GI50 [10] [µM],TGI [10] [µM]
CC1(C)Cc2nnsc2C2=C1C(=O)CCS2,> 100,> 100,> 100,> 100,> 100,> 100,> 100,> 100,> 100,,,,,,,,,,,
C[CH2][Ge]([CH2]C)([CH2]C)[O]C(=O)C([O][Ge]([CH2]C)([CH2]C)[CH2]C)c1ccccc1 (stereo not drawn),31.7,74.1,37.3,46.4,> 100,41,96.1,44.3,> 100,11.1,16.3,16.2,16.4,29.1,14.5,32.5,10.1,20.6,,
COC(=O)c1ccc(NC(N)=NCC(C)(C)COc2ccc(C(F)(F)F)cc2)nc1,3.45,3.08,3.17,3.21,,3.04,,3.09,,1.8,1.6,1.64,1.66,,1.61,,1.45,,1.52,3.28
COC(=O)C1=CO[C@@H](OC2OC(CO)C(O)C(O)C2O)[C@@H]2[C@H](C)[C@@H](O)[C@@H](O)[C@]12O (stereo partly drawn),> 100,> 100,> 100,> 100,> 100,> 100,> 100,> 100,,,,,,,,,,,,> 100
CN(C)CCC(/C=C/c1ccccc1)=N\Nc1ccc(Cl)cc1,13.4,2.89,22.5,13.9,7.53,13.1,27.5,20.9,11,,,,,,,,,,,
Cc1cc(Cl)ccc1N1C(=O)C(=O)C(c2nc3ccccc3o2)C(=O)C1=O,> 100,,> 100,> 100,> 100,> 100,> 100,> 100,> 100,,,,,,,,,,,
Cc1cc(Cl)cc2c1NC(=O)C2(O)CC(=O)c1ccc(F)cc1 (stereo not drawn),> 100,> 100,96.5,> 100,> 100,> 100,> 100,> 100,,,,,,,,,,,,
CN(C)CCC(=O)N1CCc2c([nH]c3ccccc23)C1c1cccnc1 (stereo not drawn),> 100,> 100,> 100,> 100,> 100,> 100,> 100,> 100,> 100,,,,,,,,,,,
Cc1nc2ccccc2c(/C=C/c2ccccc2)c1C(=O)/C=C/c1ccc(Cl)cc1,> 100,,2.91,6.36,,,,,5.24,> 100,,1.48,0.9,,,,,0.481,,
COc1cc2c(c(OC)c1OC)C(=O)c1c-2n(CCCN=[N+]=[N-])c(=O)c2cc([N+](=O)[O-])ccc12,> 100,> 100,> 100,> 100,> 100,> 100,> 100,> 100,,62.7,> 100,> 100,> 100,24.3,71.2,72.6,50.8,,27.2,> 100
Cc1ccc(N(/C=C/C(=O)C(F)(F)F)CC(=O)c2ccc(Cl)c(Cl)c2)cc1,,20.6,16.3,17.9,18.6,16.6,25.5,21.9,20.8,,4.7,3.19,4.73,5.75,4.24,12.9,10.3,4.89,7.27,20.2
COc1ccc(C(=O)C/C(=N/NC(N)=S)C(=O)Nc2ccccc2)cc1,> 100,> 100,> 100,> 100,> 100,> 100,> 100,> 100,> 100,,,,,,,,,,,
Oc1cc2c(cc1C(c1ccc3c(c1)OCO3)N1CCN(C(c3ccc4c(c3)OCO4)c3cc4c(cc3O)OCO4)CC1)OCO2 (stereo not drawn),94.8,32.6,30.8,18.8,35.7,33.2,43.6,35.4,,,,,,,,,,,,> 100
Cc1ccc(S(=O)(=O)N[C@@H](Cc2ccccc2)C(=O)CCl)cc1,> 100,65.9,24.2,> 100,42,41.7,47.2,51.4,,47.5,13.7,9.5,24,8.25,,,20.5,,15.5,50.9
CCOc1ccc2c(c1)C(=O)c1c-2n(CCCN)c(=O)c2cc([N+](=O)[O-])ccc12,,1.82,1.75,1.12,,1.19,1.48,0.473,0.0208,,0.324,0.448,0.126,,0.0146,0.0346,0.0425,< 0.01,< 0.01,0.271
NC1=NCC(c2ccccn2)C1c1ccc(F)cc1 (stereo not drawn),> 100,> 100,> 100,> 100,> 100,> 100,> 100,> 100,> 100,,,,,,,,,,,
OCC#CCCCCOCC#Cc1ccccc1C#CCOCCCCC#CCO,,> 100,45.7,63.6,> 100,56.5,> 100,48.8,,,48.4,18.7,21.2,46.1,19.2,28.9,23,,47.5,> 100
CCP(C)(C)=O,> 100,> 100,> 100,> 100,> 100,> 100,> 100,> 100,> 100,,,,,,,,,,,
CCCCCCCC(=O)NS(=O)(=O)c1ccccc1,> 100,,> 100,> 100,> 100,> 100,> 100,> 100,> 100,,,,,,,,,,,

SMILES,TGI [1] [µM],TGI [2] [µM],TGI [3] [µM],TGI [4] [µM],TGI [5] [µM],TGI [6] [µM],TGI [7] [µM],TGI [8] [µM],TGI [9] [µM],GI50 [1] [µM],GI50 [2] [µM],GI50 [3] [µM],GI50 [4] [µM],GI50 [5] [µM],GI50 [6] [µM],GI50 [7] [µM],GI50 [8] [µM],GI50 [9] [µM],GI50 [10] [µM],TGI [10] [µM]
NC(=NCCO)c1ccc(N2CCCN(c3ccc(C(N)=NCCO)cc3)CC2)cc1,,> 100,> 100,> 100,,> 100,> 100,> 100,,,> 100,> 100,> 100,,> 100,> 100,> 100,,,
Cc1cccc(C)c1NC(=O)CCCC(=O)C(C#N)c1ccc(Cl)cc1 (stereo not drawn),> 100,> 100,> 100,> 100,> 100,> 100,> 100,> 100,> 100,,,,,,,,,,,
COC1C(O)CC(OC2CC(OC3CC(O[C@@H]4C(=O)c5c(cc6cc(OC7CC(OC8CC(O)C(O)C(C)O8)C(O)C(C)O7)c(C)c(O)c6c5O)C[C@H]4[C@H](OC)C(=O)[C@@H](O)[C@@H](C)O)OC(C)C3O)OC(C)C2O)OC1C (stereo partly drawn),> 100,0.564,0.101,> 56,> 100,> 20.3,> 11.1,< 0.0442,> 100,,,,,0.0363,,,< 0.0189,0.0329,,
COc1ccc(C2N3CCCCC3[C@@H]3c4[nH]c5ccccc5c4CCN23)c(OC)c1 (stereo partly drawn),92.3,79.7,85.3,32.6,> 100,> 100,> 100,58.7,63.3,,,,,,,,,,,
COC(=O)[C@@H]1[C@H](O)[C@H](C)[C@H](O)[C@H](C)/C=C\C=C(C)C(=O)Nc2c(C)c(OC(C)=O)c3c(c2O)C(=O)C(C)=C2OCOC(=C23)C(C)=C[C@@](C)(O)[C@H](O)[C@@H](C)[C@H]1OC(C)=O,,> 100,,> 100,> 100,> 100,> 100,> 100,> 100,,,,,,,,,,,65.3
O=C([CH-]C(=O)c1ccccc1)c1ccccc1.[CH3-].[CH3-].[CH3-].[Sn+4],70.1,86.5,71.8,60.3,> 100,31.5,73,63.4,,27.1,37.2,12.7,19.2,33.1,6.68,14.8,18.4,,,
Oc1c(Cl)cc(CN(Cc2cc(Cl)c(O)c(Cl)c2)C2CCCCC2)cc1Cl,> 100,> 100,> 100,> 100,> 100,> 100,> 100,> 100,,,,,,,,,,,,> 100
Cc1cccc(Cl)c1NC(=O)c1cccc([N+](=O)[O-])c1O,> 100,> 100,76.4,> 100,> 100,> 100,> 100,85.1,> 100,,,,,,,,,,,
O=[N+]([O-])c1ccc2nc3ccscc-3c2c1,86.3,> 100,> 100,> 100,> 100,> 100,> 100,70.2,> 100,,,,,,,,,,,
Cc1ccccc1NC(=O)C(=O)CC(=O)C1CCOC1=O (stereo not drawn),> 100,> 100,> 100,,> 100,> 100,> 100,> 100,> 100,,,,,,,,,,,
CCOC(=O)N1CCc2cc(OC)c(OC)cc2/C1=C/c1ccc(OC)c(OC)c1,> 100,> 100,> 100,98.4,> 100,> 100,> 100,> 100,> 100,,,,,,,,,,,
O=c1oc2c(cc1-c1ccccc1)C(O)Oc1ccccc1-2 (stereo not drawn),75.7,> 100,> 100,> 100,91.9,97.1,> 100,25,,10.2,31.3,2.6,3.21,10.4,8.79,6.38,7.94,,4.29,> 100
CC(C)(C)c1cc(-c2c3nc(c(-c4cc(C(C)(C)C)cc(C(C)(C)C)c4)c4ccc([nH]4)c(-c4cc(C(C)(C)C)cc(C(C)(C)C)c4)c4nc(c(-c5cc(C(C)(C)C)cc(C(C)(C)C)c5)c5ccc2[nH]5)C=C4)C=C3)cc(C(C)(C)C)c1,> 100,> 100,> 100,> 100,> 100,> 100,> 100,> 100,> 100,,,,,,,,,,,
Cc1cccc2cc3cccc(C(=O)NCCN(C)C)c3nc12,0.619,1.63,5.38,3.94,> 38.8,1.74,6.06,1.17,3.53,,,,,,,,,,,
C=C(CN(C)Cc1ccccc1)c1ccc(C(=O)Nc2ccccc2N)cc1,14.4,21.4,16,,9.35,16.7,43.2,7.93,,5.28,5.46,3.56,,0.606,5.4,6.47,0.397,,16.8,> 50
C/C=C/C=C/CCCCCCCCCCCCC[C@]1(OC)C=CC(CC(=O)OC)OO1 (stereo partly drawn),81,,42.2,48.1,20,34.3,,36.8,28.7,,,22.1,21.9,5.61,18.5,,19.1,6.9,,
COc1cc(/C=C2\NC(=S)C3Cc4c(OC)c(C)c(OC)c(OC)c4C2N3C)c(OC)c(C)c1OC (stereo not drawn),> 100,> 100,> 100,> 100,> 100,> 100,> 100,> 100,> 100,,,,,,,,,,,
O=C1c2ccccc2C(=O)c2sc(Nc3ccc(Cl)cc3)nc21,30.4,7.37,2.74,15.5,6.9,15.8,9.71,2.81,4,,,,,,,,,,,
